Laboratory results as given in patent US20030162661A1, “2,4-Diamino-1,3,5-triazines, their preparation, and their use as herbicides and plant growth regulators” (priority 1998, published 2003).

Tests used:
[1] = system: harmful plants such as Stellaria media, Lolium multiflorum, Amaranthus retroflexus, Sinapis alba, Avena sativa and Setaria viridis; test: Pre-emergence effect on weeds (greenhouse pot test, visual scoring); type: in vivo; details: applied pre-emergence at an application rate of 1 kg or less of active substance per hectare; scored visually after 3 to 4 weeks vs untreated controls;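 note: scored as plant damage or reduced emergence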
Excerpt: 1 Pre-emergence Effect on Weeds
Seeds or rhizome pieces of monocotyledonous and dicotyledonous weeds plants are placed in sandy loam soil in plastic pots and covered with soil. The compounds according to the invention which are formulated in the form of wettable powders or emulsion concentrates are then applied to the surface of the soil cover in the form of an aqueous suspension or emulsion at an application rate of 600 to 800 l of water/ha (converted), in various dosages.

[2] = system: harmful plants such as Sinapis alba, Echinochloa crus- galli, Lolium multiflorum, Stellaria media, Cyperus iria, Amaranthus retroflexus, Setaria viridis and …; test: Post-emergence effect on weeds (greenhouse pot test, visual scoring); type: in vivo; details: applied post-emergence (three-leaf stage) at an application rate of 1 kg and less of active substance per hectare; scored visually after about 3 to 4 weeks vs untreated controls
Experimental: 2. Post-emergence Effect on Weeds
Seeds or rhizome pieces of monocotyledonous and dicotyledonous weeds are placed in sandy loam soil in plastic pots, covered with soil and grown in the greenhouse under good growth conditions. Three weeks after sowing, the test plants are treated in the three-leaf stage. The compounds according to the invention which are formulated as wettable powders or as emulsion concentrates are sprayed in various dosages on the green parts of the plants at an application rate of 600 to 800 l of water/ha (converted). After the test plants have remained in the greenhouse for about 3 to 4 weeks under ideal growth conditions, the effect of the preparations is scored visually by comparison with untreated controls. The agents according to the invention also have a good herbicidal post-emergence action against a broad range of economically important grass weeds and dicotyledonous weeds.

SMILES	herbicidal action against harmful plants, pre-emergence [1]	herbicidal action against harmful plants, post-emergence [2]
CC(C)c1nc(N)nc(NC(CCc2ccccc2)c2ccccc2)n1 (stereo not shown) [Example 18-4]	very good herbicidal action	very good herbicidal action
CC(C)(F)c1nc(N)nc(NC(CCc2ccccc2)C2CCCO2)n1 (stereo not shown) [Example 19-5]	very good herbicidal action	very good herbicidal action
CC(C)c1nc(N)nc(NC(CCc2ccccc2)C2CCCO2)n1 (stereo not shown) [Example 19-6]	very good herbicidal action	very good herbicidal action
CC(C)(F)c1nc(N)nc(NC(CCc2ccccc2)C2CCOC2)n1 (stereo not shown) [Example 20-1]	very good herbicidal action	very good herbicidal action
CC(C)c1nc(N)nc(NC(CCc2ccccc2)C2CCOC2)n1 (stereo not shown) [Example 20-2]	very good herbicidal action	very good herbicidal action
CC(F)c1nc(N)nc(NC(CCCc2ccccc2)C2CC2)n1 (stereo not shown) [Example 22-3]	very good herbicidal action	very good herbicidal action
Cc1nc(N)nc(NC(CCCc2ccccc2)C2CC2)n1 (stereo not shown) [Example 22-8]	very good herbicidal action	very good herbicidal action
CCc1nc(N)nc(NC(CCCc2ccccc2)C2CC2)n1 (stereo not shown) [Example 22-9]	very good herbicidal action	very good herbicidal action
CC(C)c1nc(N)nc(NC(CCCc2ccccc2)C2CC2)n1 (stereo not shown) [Example 22-11]	very good herbicidal action	very good herbicidal action
CC(C)(F)c1nc(N)nc(NC(CCCc2ccccc2)C2CC2)n1 (stereo not shown) [Example 22-12, 2-Amino-4-(1-fluoro-1-methylethyl)-6-(1-phenyl-4-cyclopropyl-4-butylamino)-1,3,5-triazine]	very good herbicidal action	very good herbicidal action
CC(C)(F)c1nc(N)nc(NC(CCCc2cccc(Cl)c2)C2CC2)n1 (stereo not shown) [Example 22-18]	very good herbicidal action	very good herbicidal action
CC(C)(F)c1nc(N)nc(NC(CCCc2cccc(F)c2)C2CC2)n1 (stereo not shown) [Example 22-24]	very good herbicidal action	very good herbicidal action
CC(C)c1nc(N)nc(NC(CCCc2cccc(F)c2)C2CC2)n1 (stereo not shown) [Example 22-25]	very good herbicidal action	very good herbicidal action
Cc1cccc(CCCC(Nc2nc(N)nc(C(C)C)n2)C2CC2)c1 (stereo not shown) [Example 22-26]	very good herbicidal action	very good herbicidal action
Cc1cccc(CCCC(Nc2nc(N)nc(C(C)(C)F)n2)C2CC2)c1 (stereo not shown) [Example 22-27]	very good herbicidal action	very good herbicidal action
Cc1cc(C)cc(CCCC(Nc2nc(N)nc(C(C)(C)F)n2)C2CC2)c1 (stereo not shown) [Example 22-28, 2-Amino-4-(1-fluoro-1-methylethyl)-6-[4-(3,5-dimethylphenyl)-1-cyclopropyl-1-butylamino]-1,3,5-triazine]	very good herbicidal action	very good herbicidal action
COc1cccc(CCCC(Nc2nc(N)nc(C(C)C)n2)C2CC2)c1 (stereo not shown) [Example 22-29]	very good herbicidal action	very good herbicidal action
COc1cccc(CCCC(Nc2nc(N)nc(C(C)(C)F)n2)C2CC2)c1 (stereo not shown) [Example 22-30]	very good herbicidal action	very good herbicidal action

SMILES	herbicidal action against harmful plants, pre-emergence [1]	herbicidal action against harmful plants, post-emergence [2]
CC(C)c1nc(N)nc(NC(CCCc2ccccc2)C2CCC2)n1 (stereo not shown) [Example 28-4]	very good herbicidal action	very good herbicidal action
CC(C)Cc1nc(N)nc(NC(CCCc2ccccc2)C2CCC2)n1 (stereo not shown) [Example 28-5]	very good herbicidal action	very good herbicidal action
CC(C)(F)c1nc(N)nc(NC(CCCc2ccccc2)C2CCC2)n1 (stereo not shown) [Example 28-10]	very good herbicidal action	very good herbicidal action
CC(C)c1nc(N)nc(NC(CCCc2cccc(Cl)c2)C2CCC2)n1 (stereo not shown) [Example 28-13]	very good herbicidal action	very good herbicidal action
CC(C)(F)c1nc(N)nc(NC(CCCc2cccc(Cl)c2)C2CCC2)n1 (stereo not shown) [Example 28-14]	very good herbicidal action	very good herbicidal action
Cc1cccc(CCCC(Nc2nc(N)nc(C(C)C)n2)C2CCC2)c1 (stereo not shown) [Example 28-17]	very good herbicidal action	very good herbicidal action
COc1cccc(CCCC(Nc2nc(N)nc(C(C)C)n2)C2CCC2)c1 (stereo not shown) [Example 28-20]	very good herbicidal action	very good herbicidal action
COc1cccc(CCCC(Nc2nc(N)nc(C(C)(C)F)n2)C2CCC2)c1 (stereo not shown) [Example 28-21]	very good herbicidal action	very good herbicidal action
CC(C)c1nc(N)nc(NC(CCCCc2ccccc2)C2CC2)n1 (stereo not shown) [Example 30-1]	very good herbicidal action	very good herbicidal action
CC(C)(F)c1nc(N)nc(NC(CCCCc2ccccc2)C2CC2)n1 (stereo not shown) [Example 30-2]	very good herbicidal action	very good herbicidal action
CC(C)(F)c1nc(N)nc(NC(CCCCc2ccccc2)C2CCC2)n1 (stereo not shown) [Example 31-1]	very good herbicidal action	very good herbicidal action
Nc1nc(NC(CCCCc2ccccc2)C2CCC2)nc(C(F)(F)F)n1 (stereo not shown) [Example 31-2]	very good herbicidal action	very good herbicidal action
CC(C)c1nc(N)nc(NC(CCCCc2ccccc2)C2CCC2)n1 (stereo not shown) [Example 31-3]	very good herbicidal action	very good herbicidal action
CC(C)c1nc(N)nc(NC(CCc2ccccc2)CC2CC2)n1 (stereo not shown) [Example 32-1]	very good herbicidal action	very good herbicidal action
CC(C)(F)c1nc(N)nc(NC(CCc2ccccc2)CC2CC2)n1 (stereo not shown) [Example 32-2]	very good herbicidal action	very good herbicidal action
CC(C)c1nc(N)nc(NC(CCc2cccc(Cl)c2)CC2CC2)n1 (stereo not shown) [Example 32-5]	very good herbicidal action	very good herbicidal action
CC(C)(F)c1nc(N)nc(NC(CCc2cccc(Cl)c2)CC2CC2)n1 (stereo not shown) [Example 32-6]	very good herbicidal action	very good herbicidal action
